Measurements from patent US20090181972A1, “Novel Inhibitors of Cysteine Proteases, the Pharmaceutical Compositions Thereof and their Therapeutic Applications” (priority 2005, published 2009).

Key:
[1] = tested on: PC-3 prostate cancer cells; assay: PC3 cell viability and proliferation assay (MTS); assay type: cell-based; settings: Homo sapiens, PC-3, 72 hours incubation, mean of three independent experiments, read-out: PC3 GI50 D3
Description: PC-3 prostate cancer cells were obtained from ATCC, and maintained in F-12K medium containing 7% FBS and 1% penicillin/streptomycin. Cells were incubated at 37° C. in a humidified atmosphere containing 5% CO2.
(§1) Cell viability was assayed using the MTS technique in 96-well culture plates (CellTiter 96® Aqueous Non-Radioactive Cell Proliferation Assay, Promega) according to the manufacturer's instructions. MTS (3-(4,5-dimethyl-thiazol-2-yl)-5-(3-carboxymethoxyphenyl)-2-(4-sulfophenyl)-2H-tetrazolium) is a MTT-derived tetrazolium that is reduced in metabolically active cells into a soluble, cell-permeant formazan. The amount of formazan, detected by its absorbance at 492 nm is proportional to the number of living, metabolically active cells.
(§2) 2×10^3 PC3 cells were seeded per well. 24 hours later, the medium was changed and the cells treated in triplicate with the following concentrations of each compound: 10 μM-3.33 μM-1.11 μM-370 nM-123 nM-41 nM-14 nM and 5 nM. The compounds were diluted in 100% DMSO, whose final concentration on cells was kept at 0.5%.
(§3) Cells were incubated with the compounds for 72 hours, and their viability then assayed by the addition of MTS for 2 hours. Absorbance at 492 nm was measured directly from the 96-well culture plates. GI50 (Growth Inhibition 50) concentrations for each compound were calculated using a sigmoidal variable slope fit (Prism 4.0, Graphpad Softwares). Values represent mean of three independent experiments.

Caspase 3 = biological target: T1, Caspase 3 (Homo sapiens, UniProt P42574); assay: Caspase 3 activity assay; assay type: biochemical; settings: 500 nM Ac-DEVD-AMC, 3.2 nM enzyme; pre-incubated 30 minutes at 25° C., 60 minutes at 37° C.; sigmoidal fit
T1 sequence (P42574 29-175 limits assumed): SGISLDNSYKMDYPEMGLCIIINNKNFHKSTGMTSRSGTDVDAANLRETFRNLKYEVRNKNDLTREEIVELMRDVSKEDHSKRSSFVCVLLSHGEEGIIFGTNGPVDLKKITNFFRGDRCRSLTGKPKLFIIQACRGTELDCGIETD
T1 sequence (P42574 176-277 limits assumed): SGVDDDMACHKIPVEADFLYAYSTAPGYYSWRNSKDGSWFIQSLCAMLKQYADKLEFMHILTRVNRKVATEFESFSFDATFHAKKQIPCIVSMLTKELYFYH
Description: Caspase 3 was diluted in Caspase 3 buffer (100 mM Hepes pH 7.5; 10% sucrose; 0.1% CHAPS). Compounds stocks (100 mM) were stored at −20° C. in DMSO. Compounds were tested at the following final concentrations: 100 μM; 33.3 μM; 11.1 μM; 3.7 μM; 1.23 μM; 412 nM; 137 nM; 45.7 nM; 15.2 nM; 5 nM. Reactions were performed as duplicates in Black LJL 96 well plates (HE microplates; Molecular Devices; 20 μl final reaction volume). The substrate concentration for caspase 3 specificity assay was 500 nM (Ac-DEVD-AMC; Promega). The concentration of the enzyme (Caspase 3) in specificity assays was 3.2 nM. The concentrations were determined in order to perform specificity assays under initial velocities at fixed substrate concentration. Compounds were pre-incubated with enzymes for 30 minutes at 25° C. Reactions were initiated by addition of substrate to the plates containing the enzymes (+/− compounds) diluted in assay buffer. Reactions were incubated for 60 minutes at 37° C. Reactions were stopped by adding acetic acid (100 mM final). Readings were performed on a Pherastar Fluorescent Reader (BMG). δ Emission 380 nm; δ Excitation=460 nm. Data (mean values +/− standard deviation) were analyzed as % of control (no compound) and plotted as percentage versus the Log of the compound concentration using GraphPad (Prism). Data were fitted to a sigmoidal model (variable slope).

[2] = tested on: HCT116 colon cancer cells; assay: HCT116 cell viability and proliferation assay (MTS); assay type: cell-based; settings: Homo sapiens, HCT-116, 72 hours incubation, mean of three independent experiments, read-out: HCT116 GI50 D3
Description: HCT116 colon cancer cells were obtained from ATCC (American Type Culture Collection), and maintained in Mc Coy's 5A medium containing 10% FBS, 3 mM glutamine and 1% penicillin/streptomycin. Cells were incubated at 37° C. in a humidified atmosphere containing 5% CO2.
as §1, with “(3-(4,5-dimethyl-thiazol-2-yl)-5-(3-carboxymethoxyphenyl)-2-(4-sulfophenyl)-2H-tetra-zolium)” for “(3-(4,5-dimethyl-thiazol-2-yl)-5-(3-carboxymethoxyphenyl)-2-(4-sulfophenyl)-2H-tetrazolium)”
as §2, with “10^3 HCT116” for “2×10^3 PC3”
as §3, with “G150” for “GI50”

SENP1 = biological target: T2, SENP1 (Homo sapiens, UniProt Q9P0U3); assay: SENP1 activity assay; assay type: biochemical; settings: MBP-SENP1 1.8 nM, 200 nM SUMO-AMC; pre-incubated 30 minutes at 25° C., 60 minutes at 37° C.; sigmoidal fit
T2 construct: made in house; host or cells: E. coli BL21
T2 sequence (Q9P0U3 1-644): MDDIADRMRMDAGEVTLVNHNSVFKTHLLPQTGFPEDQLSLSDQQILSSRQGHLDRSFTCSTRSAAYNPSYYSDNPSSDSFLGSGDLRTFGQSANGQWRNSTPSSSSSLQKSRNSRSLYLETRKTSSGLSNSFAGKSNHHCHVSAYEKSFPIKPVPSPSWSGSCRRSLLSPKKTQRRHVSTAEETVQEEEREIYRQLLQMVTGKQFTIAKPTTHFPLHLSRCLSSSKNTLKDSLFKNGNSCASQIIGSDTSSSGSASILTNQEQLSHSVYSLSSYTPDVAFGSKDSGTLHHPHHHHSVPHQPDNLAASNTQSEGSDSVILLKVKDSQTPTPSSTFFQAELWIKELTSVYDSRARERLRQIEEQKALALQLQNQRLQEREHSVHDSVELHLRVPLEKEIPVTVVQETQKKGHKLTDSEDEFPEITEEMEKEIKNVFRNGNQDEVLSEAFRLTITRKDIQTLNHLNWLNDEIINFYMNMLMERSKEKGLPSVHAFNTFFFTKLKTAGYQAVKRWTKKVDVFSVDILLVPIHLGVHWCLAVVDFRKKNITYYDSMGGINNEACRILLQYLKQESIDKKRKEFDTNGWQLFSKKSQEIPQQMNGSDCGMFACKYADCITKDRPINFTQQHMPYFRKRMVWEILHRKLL
Description: The cDNA encoding SENP1 was obtained by PCR amplification from placenta mRNA. SENP1 cDNA was subcloned by PCR into a bacterial expression vector (pMAL-C2X; New England BioLabs, Inc). The sequence was ascertained by sequencing of the entire open reading frame. pMAL-C2-SENP1 was transformed into BL21 cells and grown in LB-ampicillin medium supplemented with glucose (2 g.l^−1). Fusion protein expression was induced by IPTG (0.5 mM). Bacterial cell lysates were harvested and lyzed in lysis buffer (Tris HCl 20 mM pH 7.4; 1 mM EDTA; 200 mM NaCl; 0.5% Triton X-100; 10 % glycerol; Protease Inhibitor Cocktail) followed by sonication. Proteins were affinity purified on amylose affinity resin (New England BioLabs, Inc). Bound materials were extensively washed in wash buffer (20 mM Tris HCl pH 7.4; 200 mM NaCl; 1 mM EDTA; 0.5% Triton X-100; 10% glycerol) and eluted from the resin in 10 mM maltose-containing wash buffer. Proteins were dialyzed in dialysis buffer (Tris HCl pH 7.6 20 mM; NaCl 200 mM; DTT 1 mM; EDTA 1 mM; 10% Glycerol). Proteins purifications were analyzed on 4-12% NuPAGE (Invitrogen).
MBP-SENP1 was diluted in SENP1 buffer (50 mM Tris HCl; 0.5 mM EDTA; 5 mM DTT; 0.01 % Triton X-100; Bovine Serum Albumin 0.05 mg.ml^−1 pH 7.6). Compounds stocks (100 mM) were stored at −20° C. in DMSO. Compounds were tested at the following final concentrations: 100 μM; 33.3 μM; 11.1 μM; 3.7 μM; 1.23 μM; 412 nM; 137 nM; 45.7 nM; 15.2 nM; 5 nM.
Reactions were performed as duplicates in Black LJL 96 well plates (HE microplates; Molecular Devices; 20 μl final reaction volume). The substrate concentration for SENP1 was 200 nM SUMO-AMC (Chem. Biol., 2003, 10, p. 837-846) (Boston Biochem). The concentration of the enzyme (SENP1) in specificity assays was 1.8 nM. The concentrations were determined in order to perform specificity assays under initial velocities at fixed substrate concentration. Compounds were pre-incubated with enzymes for 30 minutes at 25° C. Reactions were initiated by addition of substrate to the plates containing the enzymes (+/− compounds) diluted in assay buffer. Reactions were incubated for 60 minutes at 37° C. Reactions were stopped by adding acetic acid (100 mM final). Readings were performed on a Pherastar Fluorescent Reader (BMG). λ Emission 380 nm; λ Excitation=460 nm. Data (mean values +/− standard deviation) were analyzed as % of control (no compound) and plotted as percentage versus the Log of the compound concentration using GraphPad (Prism). Data were fitted to a sigmoidal model (variable slope).

Row | SMILES | GI50 [1] [nM] | IC50 (Caspase 3) [nM] | GI50 [2] [nM] | IC50 (SENP1) [nM]
1 | Nc1nnc2nc3c(nn12)-c1ccccc1C3=O [Example 1c/B, 3-Amino-1,2,3a,4,10-pentaaza-cyclopenta[b]fluoren-9-one] | 3170 | 212 | 981 | 
2 | O=C1c2ccccc2-c2nc3nnc(CO)n3nc21 [Example 1h/A, 1-Hydroxymethyl-2,3,4,10,10a-pentaaza-cyclopenta[b]fluoren-9-one] | 4000 |  | 2050 | > 100000
3 | Cc1nnc2nc3c(nn12)C(=O)c1ccccc1-3 [Example 1b/A, 1-Methyl-2,3,4,10,10a-pentaaza-cyclopenta[b]fluoren-9-one] | 7090 |  | 1300 | > 100000
